# Values quoted from earlier work as cited in US5420016A, “Test device and kit for detecting helicobacter pylori” (Serim Research Corporation, priority 1994, dated 1995).
# Target: Urease from H. pylori (Helicobacter pylori, UniProt P69996)
# Conditions: read-out: Michaelis constant (urea); substrate urea; from Dunn, et al., J. Biol. Chem., 265:9464-9 (1990)
# Sequence of Urease from H. pylori (P69996 whole entry): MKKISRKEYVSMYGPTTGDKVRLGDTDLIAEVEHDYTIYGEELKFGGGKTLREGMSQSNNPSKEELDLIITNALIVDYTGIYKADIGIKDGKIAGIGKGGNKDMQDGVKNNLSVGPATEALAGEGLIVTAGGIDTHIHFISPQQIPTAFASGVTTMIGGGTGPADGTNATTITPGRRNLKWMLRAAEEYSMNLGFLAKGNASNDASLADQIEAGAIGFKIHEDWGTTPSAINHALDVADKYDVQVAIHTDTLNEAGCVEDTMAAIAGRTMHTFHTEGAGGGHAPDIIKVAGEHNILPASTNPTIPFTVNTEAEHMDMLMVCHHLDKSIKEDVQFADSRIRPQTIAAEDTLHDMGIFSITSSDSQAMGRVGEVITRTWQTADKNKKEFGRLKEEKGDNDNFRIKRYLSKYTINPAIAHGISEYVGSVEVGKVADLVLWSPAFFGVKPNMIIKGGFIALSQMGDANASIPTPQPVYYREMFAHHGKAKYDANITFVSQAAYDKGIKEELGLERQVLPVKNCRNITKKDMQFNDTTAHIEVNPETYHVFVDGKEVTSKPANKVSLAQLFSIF
# Sequence of Urease from H. pylori (P14916 whole entry, further chain): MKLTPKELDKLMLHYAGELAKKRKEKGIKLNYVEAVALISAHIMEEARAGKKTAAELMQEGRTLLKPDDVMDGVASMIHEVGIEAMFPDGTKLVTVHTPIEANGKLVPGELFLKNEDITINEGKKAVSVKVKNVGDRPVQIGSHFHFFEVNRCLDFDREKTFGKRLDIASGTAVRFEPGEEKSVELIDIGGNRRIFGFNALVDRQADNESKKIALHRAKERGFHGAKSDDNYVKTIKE
smiles,measurement,value
NC(N)=O [urea],Km,300 µM
